Results: patent US20250143306A1, “COMBINATION FOR IMPROVING PLANT GROWTH AND/OR YIELD, FORMULATION AND METHOD FOR INCREASING PLANT GROWTH, STRESS RESISTANCE, AND YIELDS, AND USE THEREOF” (INSTITUTE OF EXPERIMENTAL BOTANY CAS CR, V.V.I., priority 2022, published 2025)
Marks after values point to notes of the source that are not given here.

Columns and labels:
Assay type in all cases: in vivo
[1] = tested on: winter wheat plants; test: Root dry weight of winter wheat, method of testing the synergistically effective amounts of MTU and PCA (optimal conditions)
Experimental: The synergistically effective amounts of MTU and pyroglutamic acid (PCA) were determined by the method of determining the root growth of winter wheat plants. […].
As a first control, MTU was applied to another group of the winter wheat plants at the following amounts: 1, 2, 4 and 8 mg/liter of the composition.
As a second control, PCA was applied to another group of the winter wheat plants at the amount of 200 mg/liter of the composition.
As a negative control, another group of the winter wheat plants was applied only water in the same amount as the compositions applied to the above-described groups.
The plants were then grown at 20° C. under natural light for a period of 45 days. The root dry weight (RDW) of at least 30 plants was measured 45 days after the plants had been sown for each group. RDW was recorded after drying the plants at 70° C. for 2 days.
The relative increase in RDW was calculated as % of control (Table 1). The % of control for combinations containing MTU: PCA in ratios 1:200, 2:200 and 4:200 was higher than the sum of % of control of only PCA group (+8.8%) with the MTU group (1, 2 or 4 mg).

[2] = tested on: wheat (Triticum aestivum) cv. Balitus; test: Root and shoot dry weight and leaf nitrogen content of hydroponically grown wheat under optimal conditions (Example 1)
Experimental: To investigate the effect of the combinations on the weight parameters, the seeds of wheat (Triticum aestivum) cv. Balitus were sown in a hydroponic growing system (Araponics, Liege, Belgium) using Hoagland's solution (control). Twenty days after sowing, plants (except for control plants) were sprayed by aqueous solution of either MTU (10 μM) or by a nitrogen utilization enhancer alone or by a combination of MTU (10 μM) with the nitrogen utilization enhancer. The plants were grown in the Czech Republic in a glasshouse at 16-25° C. under natural and artificial light during the winter period. The root dry weight (RDW), shoot dry weight (SDW) and the nitrogen content in the leaves of at least 30 plants were measured 45 days after the plants had been sown. RDW and SDW were recorded after drying the plants at 70° C. for 2 days.

[3] = tested on: Winter wheat variety Barrel; test: Grain yield of field-grown winter wheat (Example 3); details: MTU 0.4 g/ha, pyroglutamic acid 40 g/ha, UK 2019
Experimental: (§1) The field experiments were done in 2019 in the UK and they were performed in accordance with the Good Experimental Practice criteria. Winter wheat variety Barrel was used. MTU was applied by spraying at a concentration of 10 μM (2 mg/L) and a dosage of 200 L/ha (0.4 g/ha of MTU). Pyroglutamic acid was used at 40 g/ha, applied at a dose of 200 l/ha in a water solution.

[4] = tested on: Oilseed rape variety Elgar (2018) and Elizze (2019); test: Grain yield of field-grown oilseed rape (Example 5); details: MTU 0.4 g/ha, pyroglutamic acid 40 g/ha
Experimental: Oilseed rape variety Elgar (2018) and Elizze (2019) were grown in the UK in the years 2018 and 2019. Experiments were performed in accordance with the Good Experimental Practice criteria. MTU was applied by spraying at a concentration of 10 μM (2 mg/L) and a dosage of 200 L/ha (0.4 g/ha of MTU). Pyroglutamic acid was used at 40 g/ha, applied at a dosage of 200 L/ha in a water solution.

[5] = tested on: Winter wheat variety Barrel; test: Nitrogen content in grains of field-grown winter wheat, Kjeldahl method (Example 4); details: MTU 0.4 g/ha, pyroglutamic acid 40 g/ha
Experimental: as §1
Wheat grains used to make bread require a grain nitrogen content of 2.1% (w/w) or higher. Grains from each sample treatment from the experiment described in Example 3 were analyzed for nitrogen content. The analysis was done using a Kjeldahl method (Kjeldahl, J. (1883) “New method for the determination of nitrogen in organic substances), Zeitschrift für analytische Chemie, 22 (1): 366-383.

[6] = tested on: sunflower (Helianthus sp. L.); test: Seed yield of field-grown sunflower (Example 6); details: Hungary 2020, MTU 2 mg/L at 300 L/ha, pyroglutamic acid 50 g/ha
Experimental: Seeds of sunflower (Helianthus sp. L.) were sown in Hungary in 2020 in accordance with the Good Experimental Practice criteria. MTU was applied by spraying at a concentration of 10 μM (2 mg/L) and a dosage of 300 L/ha. Pyroglutamic acid was used at 50 g/ha, applied at a dosage of 300 L/ha in a water solution.

[7] = tested on: wheat (Triticum aestivum) cv. Balitus; test: Root and shoot dry weight and total chlorophyll content of wheat under drought stress conditions (Example 2)
Experimental: To investigate the effect of the combinations on the weight parameters, and the total content of chlorophyll, seeds of wheat (Triticum aestivum) cv. Balitus were sown in a hydroponic growing system (Araponics, Liege, Belgium) using Hoagland's solution (control). Twenty days after sowing plants (except for control plants) were sprayed by either MTU (10 μM) or by nitrogen utilization enhancers alone or with a combination of MTU (10 μM) and nitrogen utilization enhancers. The plants were grown in a glasshouse at 20-28° C. under a combination of natural and artificial light. Since the treatment (20 days after sowing), the plants received low water doses. […] The root dry weight (RDW), shoot dry weight (SDW), and total chlorophyll content (TCC) of at least 25 plants were measured at the end of the experiment—45 days after the plants had been sown. RDW and SDW were recorded after drying the plants at 70° C. for 2 days. The chlorophyll content of each plant was measured by SPAD meter reading at the end of the experiment and TCC was calculated as SPAD value per SDW.

[8] = UK 2018, application at BBCH 13
[9] = UK 2018, application at BBCH 65
[10] = UK 2019, application at BBCH 65
[11] = UK 2019, application at BBCH 70
[12] = 200 mg in 1 liter of composition

COCCNC(=O)Nc1cnns1 [MTU, 1-(2-methoxyethyl)-3-(1,2,3-thiadiazol-5yl)urea]
RDW % of control ([1]; 1 mg in 1 liter of composition): +5.5%
RDW (root dry weight) ([1]; 1 mg in 1 liter of composition): 0.96 g
RDW % of control ([1]; 2 mg in 1 liter of composition): +7.7%
RDW (root dry weight) ([1]; 2 mg in 1 liter of composition): 0.98 g
RDW % of control ([1]; 4 mg in 1 liter of composition): +15.4%
RDW (root dry weight) ([1]; 4 mg in 1 liter of composition): 1.05 g
RDW % of control ([1]; 8 mg in 1 liter of composition): +18.1%
RDW (root dry weight) ([1]; 8 mg in 1 liter of composition): 1.07 g
Nitrogen content in the leaves ([2]; concentration 2 mg/L): 4.47 weight %
RDW % of control ([2]; concentration 2 mg/L): +3.8%
RDW (root dry weight) ([2]; concentration 2 mg/L): 0.83 g
SDW % of control ([2]; concentration 2 mg/L): +3.9%
SDW (shoot dry weight) ([2]; concentration 2 mg/L): 1.58 g
Yield % of control ([3]; application at BBCH 32): +2.4%
Yield (grain) ([3]; application at BBCH 32): 10.225 t/ha
Yield % of control ([3]; application at BBCH 39): +2.4%
Yield (grain) ([3]; application at BBCH 39): 10.230 t/ha
Yield % of control ([3]; application at BBCH 50-55): +0.5%
Yield (grain) ([3]; application at BBCH 50-55): 10.033 t/ha
Yield % of control [4, 8]: +2.9%
Yield (grain) [4, 8]: 3.90 t/ha
Yield % of control [4, 9]: +4.8%
Yield (grain) [4, 9]: 4.61 t/ha
Yield % of control [4, 10]: +6.2%
Yield (grain) [4, 10]: 3.93 t/ha
Yield % of control [4, 11]: +3.8%
Yield (grain) [4, 11]: 3.84 t/ha
Nitrogen content % of control ([5]; application at BBCH 32): −9.5%
Nitrogen content (%) of grains ([5]; application at BBCH 32): 1.82%
Nitrogen content % of control ([5]; application at BBCH 39): −2.0%
Nitrogen content (%) of grains ([5]; application at BBCH 39): 1.97%
Nitrogen content % of control ([5]; application at BBCH 50-55): −10.0%
Nitrogen content (%) of grains ([5]; application at BBCH 50-55): 1.81%
Yield % of control ([6]; application at BBCH 16-18): +12.0%
Yield (seed) ([6]; application at BBCH 16-18): 3.08 t/ha
Yield % of control ([6]; application at BBCH 55): +4.7%
Yield (seed) ([6]; application at BBCH 55): 2.88 t/ha
RDW (root dry weight) ([7]; concentration 2 mg/L): 0.74 g
SDW (shoot dry weight) ([7]; concentration 2 mg/L): 1.28 g

O=C1CC[C@@H](C(=O)O)N1 [Pyroglutamic acid, pyroglutamic acid]
RDW % of control [1, 12]: +8.8%
RDW (root dry weight) [1, 12]: 0.99 g
RDW % of control ([2]; concentration 200 mg/L): +6.3%
RDW (root dry weight) ([2]; concentration 200 mg/L): 0.85 g
SDW % of control ([2]; concentration 200 mg/L): +6.8%
SDW (shoot dry weight) ([2]; concentration 200 mg/L): 1.63 g
Nitrogen content in the leaves ([2]; concentration 400 mg/L): 4.65 weight %
RDW % of control ([2]; concentration 400 mg/L): +13.8%
RDW (root dry weight) ([2]; concentration 400 mg/L): 0.91 g
SDW % of control ([2]; concentration 400 mg/L): +10.5%
SDW (shoot dry weight) ([2]; concentration 400 mg/L): 1.68 g
Yield % of control ([3]; application at BBCH 32): +1.8%
Yield (grain) ([3]; application at BBCH 32): 10.167 t/ha
Yield % of control ([3]; application at BBCH 39): +2.0%
Yield (grain) ([3]; application at BBCH 39): 10.183 t/ha
Yield % of control ([3]; application at BBCH 50-55): +2.6%
Yield (grain) ([3]; application at BBCH 50-55): 10.241 t/ha
Yield % of control [4, 8]: +5.0%
Yield (grain) [4, 8]: 3.97* t/ha
Yield % of control [4, 9]: +23.9%
Yield (grain) [4, 9]: 5.45* t/ha
Yield % of control [4, 10]: +3.5%
Yield (grain) [4, 10]: 3.83 t/ha
Yield % of control [4, 11]: +5.4%
Yield (grain) [4, 11]: 3.90 t/ha
Nitrogen content % of control ([5]; application at BBCH 32): −7.0%
Nitrogen content (%) of grains ([5]; application at BBCH 32): 1.87%
Nitrogen content % of control ([5]; application at BBCH 39): −5.5%
Nitrogen content (%) of grains ([5]; application at BBCH 39): 1.90%
Nitrogen content % of control ([5]; application at BBCH 50-55): −10.0%
Nitrogen content (%) of grains ([5]; application at BBCH 50-55): 1.81%
Yield % of control ([6]; application at BBCH 16-18): +5.0%
Yield (seed) ([6]; application at BBCH 16-18): 2.89 t/ha
Yield % of control ([6]; application at BBCH 55): +6.3%
Yield (seed) ([6]; application at BBCH 55): 2.92 t/ha
RDW % of control ([7]; concentration 200 mg/L): +11.9%
RDW (root dry weight) ([7]; concentration 200 mg/L): 0.75 g
SDW % of control ([7]; concentration 200 mg/L): −1.6%
SDW (shoot dry weight) ([7]; concentration 200 mg/L): 1.2 g
RDW % of control ([7]; concentration 400 mg/L): +14.9%
RDW (root dry weight) ([7]; concentration 400 mg/L): 0.77 g
SDW % of control ([7]; concentration 400 mg/L): +0.8%
SDW (shoot dry weight) ([7]; concentration 400 mg/L): 1.23 g
